{
  "source": "patent US7994185B2",
  "about": "“Benzene sulfonamide thiazole and oxazole compounds” (Glaxo Smith Kline LLC, priority 2008, dated 2011)",
  "key": {"[1]": {"target": "T1, BRAFV600E full-length (amino acids 2-766) (Homo sapiens, UniProt P15056, V600E)", "T1 construct": "His6-tagged BRAFV600E full-length (amino acids 2-766); His6; made in house; host or cells: baculovirus expression system (insect cells)", "T1 sequence (P15056 2-766 V600E)": "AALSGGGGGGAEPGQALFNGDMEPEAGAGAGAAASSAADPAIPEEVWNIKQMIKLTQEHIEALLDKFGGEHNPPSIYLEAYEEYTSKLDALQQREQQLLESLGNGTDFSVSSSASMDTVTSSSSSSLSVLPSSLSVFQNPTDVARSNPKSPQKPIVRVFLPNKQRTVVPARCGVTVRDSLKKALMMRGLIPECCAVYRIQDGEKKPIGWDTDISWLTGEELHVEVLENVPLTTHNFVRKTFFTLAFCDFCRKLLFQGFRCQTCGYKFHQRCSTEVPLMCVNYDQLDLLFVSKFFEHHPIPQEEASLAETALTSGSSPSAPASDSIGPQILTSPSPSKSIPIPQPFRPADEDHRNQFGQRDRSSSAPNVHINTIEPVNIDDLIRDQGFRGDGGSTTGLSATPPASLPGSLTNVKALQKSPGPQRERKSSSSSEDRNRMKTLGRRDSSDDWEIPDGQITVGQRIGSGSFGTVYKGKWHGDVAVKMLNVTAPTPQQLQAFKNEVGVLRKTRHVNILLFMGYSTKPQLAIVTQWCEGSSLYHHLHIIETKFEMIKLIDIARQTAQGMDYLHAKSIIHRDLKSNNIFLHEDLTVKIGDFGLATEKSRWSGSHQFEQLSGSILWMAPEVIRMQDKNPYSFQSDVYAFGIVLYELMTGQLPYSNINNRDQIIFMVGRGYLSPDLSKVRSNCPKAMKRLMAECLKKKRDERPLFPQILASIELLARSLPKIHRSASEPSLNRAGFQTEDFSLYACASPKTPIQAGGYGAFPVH", "assay": "B-Raf Accelerated MEK ATPase assay (BRAMA)", "assay_type": "biochemical", "details": "categorized", "method_in_brief": "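Coupled-enzyme readout: ADP generated by MEK-mediated ATP hydrolysis, uncoupled from ERK phosphorylation, is linked to NADH oxidation through pyruvate kinase and lactate dehydrogenase.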"}, "[2]": {"test_system": "Human colon tumor cells (Colo205)", "assay": "Cell growth inhibition assay (CellTiter-Glo), Colo205", "assay_type": "cell-based", "procedure": "Human colon tumor cells (Colo205) were cultured in RPMI (Mediatech 50-020-PB) containing 10% FBS and 1% penicillin-streptomycin.\nThe next day, compounds were diluted as follow: For 96-well assays, 13.5 μL of compound in DMSO were diluted using nine (9) serial 1:3 dilutions of 4.5 μL in 9 μL of DMSO. Medium (270 μL/well of RPMI with 10% FBS and 1% penicillin-streptomycin) was added to the plates. Aliquots (7 μL) were added to cells in the final assay giving a final DMSO concentration of 0.2%. For 384-well assays, 15 μL of compound in DMSO were diluted using nine (9) serial 1:3 dilutions of 5 μL in 10 μL of DMSO, followed by a further dilution of 5 μL of compound with 95 μL of medium, of which 2 μL were added to cells in the final assay giving a final DMSO concentration of 0.2%. Cells were incubated at 37° C., 5% CO2 for 3 days.\nTotal ATP was measured (as a surrogate estimate of cell number) using CellTiter-Glo® reagent (Promega G7571). Briefly, plates were removed from the incubator and allowed to equilibrate to room temperature for 30 minutes. CellTiter-Glo® (25 μL or 55 μL for 384-well or 96-well assays, respectively) reagent was added to each well and plates were shaken on an orbital plate shaker for 2 minutes. Plates were incubated without shaking for a further 30 minutes and read on an LJL Analyst GT reader in luminometer mode with an integration time of 0.5 seconds per well. Percent inhibition of cell growth was calculated relative to DMSO vehicle-treated control wells."}, "[3]": {"test_system": "Human melanoma cancer cells (SK-MEL-28)", "assay": "Cell growth inhibition assay (CellTiter-Glo), SK-MEL-28", "assay_type": "cell-based"}, "[4]": {"details": "B-Raf Activity, Table 1a, highest pIC50 for the one or more runs"}, "[5]": {"details": "B-Raf pIC50, Table 1b, later runs, average pIC50 for the one or more runs"}, "[6]": {"details": "COLO 205, 72 h, Table 2a, 3 days incubation, read-out: Activity in Colo205 Tumor Cells"}, "[7]": {"details": "COLO 205, Table 2b, later runs, average for the one or more runs, categorized, read-out: IC50 for Colo205"}, "[8]": {"details": "SK-MEL-28, 72 h, Table 3a, 3 days incubation, read-out: Activity in SK-MEL-28 Tumor Cells"}, "[9]": {"details": "SK-MEL-28, Table 3b, later runs, average for the one or more runs, categorized, read-out: IC50 for SK-MEL-28"}, "[10]": {"details": "Table 1b, later runs, average pIC50 for the one or more runs, read-out: B-Raf pIC50 (converted)"}},
  "note": "Where two headings read alike, the source gives them in different places.",
  "data": [
    {"smiles": "CC(C)(C)c1nc(-c2cccc(NS(=O)(=O)c3cc(F)ccc3F)c2F)c(-c2ccnc(NCCCN3CCCC3=O)n2)s1", "note": "[Example 96, N-{3-[2-(1,1-Dimethylethyl)-5-(2-{[3-(2-oxo-1-pyrrolidinyl)propyl]amino}-4-pyrimidinyl)-1,3-thiazol-4-yl]-2-fluorophenyl}-2,5-difluorobenzenesulfonamide]", "values": [
      {"measurement": "IC50", "setting": "[1]; [4]", "value": "< 100", "unit": "nM"},
      {"measurement": "IC50", "setting": "[1]; [5]", "value": "≤ 3.16", "unit": "nM"},
      {"measurement": "IC50", "setting": "[2]; [6]", "value": "< 100", "unit": "nM"},
      {"measurement": "IC50", "setting": "[2]; [7]", "value": "< 100", "unit": "nM"},
      {"measurement": "IC50", "setting": "[3]; [8]", "value": "< 100", "unit": "nM"},
      {"measurement": "IC50", "setting": "[3]; [9]", "value": "< 100", "unit": "nM"}
    ]},
    {"smiles": "CC(C)(C)c1nc(-c2cccc(NS(=O)(=O)c3ccco3)c2F)c(-c2ccnc(N)n2)s1", "note": "[Example 231, N-{3-[5-(2-amino-4-pyrimidinyl)-2-(1,1-dimethylethyl)-1,3-thiazol-4-yl]-2-fluorophenyl}-2-furansulfonamide]", "values": [
      {"measurement": "IC50", "setting": "[1]; [5]", "value": "≤ 3.16", "unit": "nM"},
      {"measurement": "IC50", "setting": "[2]; [7]", "value": "< 100", "unit": "nM"},
      {"measurement": "IC50", "setting": "[3]; [9]", "value": "< 100", "unit": "nM"}
    ]},
    {"smiles": "COc1ccc(F)cc1S(=O)(=O)Nc1cccc(-c2nc(C(C)C)sc2-c2ccnc(NCC(C)C)n2)c1", "note": "[Example 38, 5-Fluoro-N-[3-(2-(1-methylethyl)-5-{2-[(2-methylpropyl)amino]-4-pyrimidinyl}-1,3-thiazol-4-yl)phenyl]-2-(methyloxy)benzenesulfonamide]", "values": [
      {"measurement": "IC50", "setting": "[1]; [4]", "value": "100 to 1000", "unit": "nM"},
      {"measurement": "IC50", "setting": "[1]; [5]", "value": "31.6 to 1000", "unit": "nM"},
      {"measurement": "IC50", "setting": "[2]; [6]", "value": "> 1000", "unit": "nM"},
      {"measurement": "IC50", "setting": "[2]; [7]", "value": "1000 to 10000", "unit": "nM"},
      {"measurement": "IC50", "setting": "[3]; [8]", "value": "> 1000", "unit": "nM"},
      {"measurement": "IC50", "setting": "[3]; [9]", "value": "1000 to 10000", "unit": "nM"}
    ]},
    {"smiles": "CC(C)(C)c1nc(-c2cccc(NS(=O)(=O)c3ccoc3)c2F)c(-c2ccncn2)s1", "note": "[Example 256, N-{3-[2-(1,1-dimethylethyl)-5-(4-pyrimidinyl)-1,3-thiazol-4-yl]-2-fluorophenyl}-3-furansulfonamide]", "values": [
      {"measurement": "IC50", "setting": "[1]; [5]", "value": "≤ 3.16", "unit": "nM"},
      {"measurement": "IC50", "setting": "[2]; [7]", "value": "< 100", "unit": "nM"},
      {"measurement": "IC50", "setting": "[3]; [9]", "value": "< 100", "unit": "nM"}
    ]},
    {"smiles": "CC(C)(O)CCc1nccc(-c2sc(N3CCOCC3)nc2-c2cccc(NS(=O)(=O)c3cc(F)ccc3F)c2F)n1", "note": "[Example 248, 2,5-difluoro-N-{2-fluoro-3-[5-[2-(3-hydroxy-3-methylbutyl)-4-pyrimidinyl]-2-(4-morpholinyl)-1,3-thiazol-4-yl]phenyl}benzenesulfonamide]", "values": [
      {"measurement": "IC50", "setting": "[1]; [10]", "value": "3.16 to 31.6", "unit": "nM"},
      {"measurement": "IC50", "setting": "[2]; [7]", "value": "< 100", "unit": "nM"},
      {"measurement": "IC50", "setting": "[3]; [9]", "value": "< 100", "unit": "nM"}
    ]},
    {"smiles": "O=S(=O)(Nc1cccc(-c2nc(C3CCOCC3)sc2-c2ccncn2)c1F)c1cc(F)ccc1F", "note": "[Example 244, 2,5-difluoro-N-{2-fluoro-3-[5-(4-pyrimidinyl)-2-(tetrahydro-2H-pyran-4-yl)-1,3-thiazol-4-yl]phenyl}benzenesulfonamide]", "values": [
      {"measurement": "IC50", "setting": "[1]; [5]", "value": "≤ 3.16", "unit": "nM"},
      {"measurement": "IC50", "setting": "[2]; [7]", "value": "< 100", "unit": "nM"},
      {"measurement": "IC50", "setting": "[3]; [9]", "value": "< 100", "unit": "nM"}
    ]},
    {"smiles": "CC(=O)NCCNc1nccc(-c2sc(C(C)C)nc2-c2cccc(NS(=O)(=O)c3cc(F)ccc3F)c2F)n1", "note": "[Example 187]", "values": [
      {"measurement": "IC50", "setting": "[1]; [4]", "value": "< 100", "unit": "nM"},
      {"measurement": "IC50", "setting": "[1]; [5]", "value": "≤ 3.16", "unit": "nM"},
      {"measurement": "IC50", "setting": "[2]; [6]", "value": "< 100", "unit": "nM"},
      {"measurement": "IC50", "setting": "[2]; [7]", "value": "1000 to 10000", "unit": "nM"},
      {"measurement": "IC50", "setting": "[3]; [8]", "value": "< 100", "unit": "nM"},
      {"measurement": "IC50", "setting": "[3]; [9]", "value": "< 100", "unit": "nM"}
    ]},
    {"smiles": "CC(C)c1nc(-c2ccc(F)c(NS(=O)(=O)c3c(F)cccc3F)c2)c(-c2ccnc(N[C@H]3CC[C@H](NS(C)(=O)=O)CC3)n2)s1", "note": "[Example 141]", "values": [
      {"measurement": "IC50", "setting": "[1]; [4]", "value": "< 100", "unit": "nM"},
      {"measurement": "IC50", "setting": "[1]; [10]", "value": "3.16 to 31.6", "unit": "nM"},
      {"measurement": "IC50", "setting": "[2]; [6]", "value": "< 100", "unit": "nM"},
      {"measurement": "IC50", "setting": "[2]; [7]", "value": "< 100", "unit": "nM"},
      {"measurement": "IC50", "setting": "[3]; [8]", "value": "< 100", "unit": "nM"},
      {"measurement": "IC50", "setting": "[3]; [9]", "value": "< 100", "unit": "nM"}
    ]},
    {"smiles": "COc1ccc(F)cc1S(=O)(=O)Nc1cccc(-c2nc(C(C)C)sc2-c2ccnc(NCCS(C)(=O)=O)n2)c1", "note": "[Example 149]", "values": [
      {"measurement": "IC50", "setting": "[1]; [4]", "value": "< 100", "unit": "nM"},
      {"measurement": "IC50", "setting": "[1]; [5]", "value": "31.6 to 1000", "unit": "nM"},
      {"measurement": "IC50", "setting": "[2]; [6]", "value": "100 to 1000", "unit": "nM"},
      {"measurement": "IC50", "setting": "[2]; [7]", "value": "100 to 1000", "unit": "nM"},
      {"measurement": "IC50", "setting": "[3]; [8]", "value": "100 to 1000", "unit": "nM"},
      {"measurement": "IC50", "setting": "[3]; [9]", "value": "100 to 1000", "unit": "nM"}
    ]},
    {"smiles": "Cc1nccc(-c2sc(C(C)(C)C)nc2-c2c(F)ccc(NS(=O)(=O)c3cccc(F)c3)c2F)n1", "note": "[Example 220, N-{3-[2-(1,1-dimethylethyl)-5-(2-methyl-4-pyrimidinyl)-1,3-thiazol-4-yl]-2,4-difluorophenyl}-3-fluorobenzenesulfonamide]", "values": [
      {"measurement": "IC50", "setting": "[1]; [10]", "value": "3.16 to 31.6", "unit": "nM"},
      {"measurement": "IC50", "setting": "[2]; [7]", "value": "< 100", "unit": "nM"},
      {"measurement": "IC50", "setting": "[3]; [9]", "value": "< 100", "unit": "nM"}
    ]},
    {"smiles": "CN(C)c1nc(-c2cccc(NS(=O)(=O)c3c(F)cccc3F)c2)c(-c2ccnc(N)n2)s1", "note": "[Example 112, N-{3-[5-(2-Amino-4-pyrimidinyl)-2-(dimethylamino)-1,3-thiazol-4-yl]phenyl}-2,6-difluorobenzenesulfonamide]", "values": [
      {"measurement": "IC50", "setting": "[1]; [4]", "value": "100 to 1000", "unit": "nM"},
      {"measurement": "IC50", "setting": "[1]; [5]", "value": "31.6 to 1000", "unit": "nM"},
      {"measurement": "IC50", "setting": "[2]; [7]", "value": "1000 to 10000", "unit": "nM"}
    ]}
  ]
}
